In patent US20060069132A1, “Azolecarboxamide herbicides” (priority 2004, published 2006):

Experiments:
blackgrass = test: Test B postemergence herbicide test; type: in vivo, Alopecurus myosuroides
Summary of the method: (§1)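 After treating 2-leaf paddy plants or 2–18 cm postemergence plants (1 to 4 leaves) with formulated chemical, researchers kept them in a greenhouse for 13–15 days. Effects were judged visually versus controls: 0 indicates none, 100 total control.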

ducksalad = test: Test B flooded paddy test; type: in vivo, Heteranthera limosa; details: 1000 g ai/ha, scale 0 to 100 (0 no effect, 100 complete control)
Summary of the method: as §1

barnyardgrass [1] = test: Test B pre-/postemergence herbicide test; type: in vivo, Echinochloa crus-galli
Summary of the method: (§2)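 Flooded paddy rice and barnyardgrass were treated at the 2-leaf stage; upland plantings received compound either on sown seed or on 1- to 4-leaf seedlings. All were kept 13–15 days in a greenhouse and scored visually, 0–100, relative to untreated plants.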

morningglory = test: Test B pre-/postemergence herbicide test; type: in vivo, Ipomoea coccinea
Summary of the method: as §2

velvetleaf = test: Test B pre-/postemergence herbicide test; type: in vivo, Abutilon theophrasti
Summary of the method: (§3)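 Response was scored visually 13 to 15 days after treatment against untreated greenhouse controls, 0 meaning no effect and 100 complete control. Formulations (solvent mixture plus surfactant) went onto soil after planting, onto foliage of 1- to 4-leaf plants, and onto 2-leaf plants in a flooded paddy set including rice and barnyardgrass.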

wild oat = test: Test B postemergence herbicide test; type: in vivo, Avena fatua
Summary of the method: (§4)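 Formulated test chemicals went onto postemergence plants measuring 2 to 18 cm, at one to four leaves. For the paddy assay, species had reached two leaves. Scoring took place 13–15 days later by eye, relative to untreated plants, using 0 for no effect up to 100 for full control.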

Surinam grass = test: Test B pre-/postemergence herbicide test; type: in vivo, Urochloa decumbens
Summary of the method: as §3

large crabgrass = test: Test B pre-/postemergence herbicide test; type: in vivo, Digitaria sanguinalis
Summary of the method: as §3

pigweed = test: Test B pre-/postemergence herbicide test; type: in vivo, Amaranthus retroflexus
Summary of the method: as §3

giant foxtail = test: Test B pre-/postemergence herbicide test; type: in vivo, Setaria faberi
Summary of the method: as §3

cocklebur = test: Test B pre-/postemergence herbicide test; type: in vivo, Xanthium strumarium
Summary of the method: as §2

[2] = system: small flower umbrella sedge; test: Test B flooded paddy test; type: in vivo, Cyperus difformis; details: 1000 g ai/ha, scale 0 to 100 (0 no effect, 100 complete control)
Summary of the method: as §1

corn = test: Test B pre-/postemergence herbicide test; type: in vivo, Zea mays
Summary of the method: as §3

rice = test: Test B flooded paddy test; type: in vivo, Oryza sativa; details: 1000 g ai/ha, scale 0 to 100 (0 no effect, 100 complete control)
Summary of the method: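 Postemergence plants were sprayed with formulated test chemicals at 2 to 18 cm height (1- to 4-leaf stage); paddy species were grown to the 2-leaf stage. After 13 to 15 days in a greenhouse, injury was rated visually against untreated controls on a 0–100 scale (0 = no effect, 100 = complete control).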

wheat = test: Test B postemergence herbicide test; type: in vivo, Triticum aestivum; parameters: key to Wheat plant response rating: 0 = no effect, 100 = complete control
Summary of the method: as §4

barnyardgrass [3] = test: Test B flooded paddy test; type: in vivo, Echinochloa crus-galli; details: 1000 g ai/ha, scale 0 to 100 (0 no effect, 100 complete control)
Summary of the method: as §1

lambsquarters = test: Test B pre-/postemergence herbicide test; type: in vivo, Chenopodium album
Summary of the method: as §3

[4] = Postemergence, 500 g ai/ha, scale 0 (no effect) to 100 (complete control)
[5] = postemergence, 125 g ai/ha, scale 0 to 100
[6] = 125 g ai/ha, 0 is no effect, 100 is complete control, preemergence
[7] = Postemergence, 500 g ai/ha, visual rating after 13 to 15 days, scale 0 (no effect) to 100 (complete control)
[8] = postemergence, 125 g ai/ha, visual rating, scale 0 (no effect) to 100 (complete control)
[9] = 500 g ai/ha, visual rating 0-100, 0 no effect, 100 complete control, preemergence
[10] = preemergence, 125 g ai/ha, 0 to 100 scale, 0 is no effect, 100 is complete control

SMILES: Cc1nn(C(C)(C)C)nc1C(=O)Nc1cc(C(=O)N(C)C)ccn1 [Compound 423]
- Blackgrass plant response rating (blackgrass; [4]): 60
- Blackgrass plant response rating (blackgrass; [5]): 30
- Ducksalad plant response rating (ducksalad): 50
- Plant response rating (0 to 100 scale), Barnyardgrass (barnyardgrass [1]; [6]): 90
- Barnyardgrass plant response rating (barnyardgrass [1]; Postemergence, 125 g ai/ha, scale 0 (no effect) to 100 (complete control)): 10
- Barnyardgrass plant response rating (barnyardgrass [1]; [4]): 30
- Plant response rating (0 to 100 scale), Morningglory (morningglory; [6]): 30
- Morningglory plant response rating (morningglory; [4]): 80
- Morningglory plant response rating (morningglory; [5]): 40
- Plant response rating (0 to 100 scale), Velvetleaf (velvetleaf; [6]): 90
- Velvetleaf plant response rating (velvetleaf; [4]): 50
- Velvetleaf plant response rating (velvetleaf; [5]): 40
- Oat, Wild plant response rating (wild oat; [4]): 30
- Oat, Wild plant response rating (wild oat; [5]): 0
- Plant response rating (0 to 100 scale), Surinam Grass (Surinam grass; [6]): 90
- Surinam Grass plant response rating (Surinam grass; [4]): 30
- Surinam Grass plant response rating (Surinam grass; [5]): 10
- Plant response rating (0 to 100 scale), Crabgrass, Large (large crabgrass; [6]): 100
- Crabgrass, Large plant response rating (large crabgrass; [4]): 50
- Crabgrass, Large plant response rating (large crabgrass; [5]): 10
- Plant response rating (0 to 100 scale), Pigweed (pigweed; [6]): 100
- Pigweed plant response rating (pigweed; [4]): 60
- Pigweed plant response rating (pigweed; [5]): 40
- Plant response rating (0 to 100 scale), Foxtail, Giant (giant foxtail; [6]): 90
- Foxtail, Giant plant response rating (giant foxtail; [4]): 30
- Foxtail, Giant plant response rating (giant foxtail; [5]): 20
- Plant response rating (0 to 100 scale), Cocklebur (cocklebur; [6]): 20
- Cocklebur plant response rating (cocklebur; [4]): 30
- Cocklebur plant response rating (cocklebur; [5]): 10
- Sedge, Umbrella plant response rating [2]: 70
- Plant response rating (0 to 100 scale), Corn (corn; [6]): 30
- Corn plant response rating (corn; [4]): 20
- Corn plant response rating (corn; [5]): 10
- Rice plant response rating (rice): 60
- Wheat plant response rating (wheat; 500 g ai/ha, scale 0 to 100, 0 no effect, 100 complete control, preemergence): 100
- Wheat plant response rating (wheat; [4]): 0
- Wheat plant response rating (wheat; [5]): 0
- Barnyardgrass plant response rating (barnyardgrass [3]): 80
- Plant response rating (0 to 100 scale), Lambsquarters (lambsquarters; [6]): 100
- Lambsquarters plant response rating (lambsquarters; [4]): 70
- Lambsquarters plant response rating (lambsquarters; [5]): 50

SMILES: CCON=C(C)c1cccc(NC(=O)c2cc(C(C)(C)C)nn2C)c1 [Compound 105]
- Plant response rating, Blackgrass (blackgrass; [7]): 0
- Blackgrass plant response rating (blackgrass; [8]): 0
- Ducksalad plant response rating (ducksalad; visual rating, 13 to 15 days): 70
- Plant response rating, Barnyardgrass (barnyardgrass [1]; [9]): 30
- Plant response rating, Barnyardgrass (barnyardgrass [1]; [7]): 0
- Barnyardgrass plant response rating (barnyardgrass [1]; [8]): 0
- Plant response rating, Barnyardgrass (barnyardgrass [1]; [10]): 0
- Plant response rating, Morningglory (morningglory; [9]): 10
- Plant response rating, Morningglory (morningglory; [7]): 10
- Morningglory plant response rating (morningglory; [8]): 0
- Plant response rating, Morningglory (morningglory; [10]): 0
- Plant response rating, Velvetleaf (velvetleaf; [9]): 0
- Plant response rating, Velvetleaf (velvetleaf; [7]): 0
- Velvetleaf plant response rating (velvetleaf; [8]): 0
- Plant response rating, Velvetleaf (velvetleaf; [10]): 0
- Plant response rating, Oat, Wild (wild oat; [7]): 10
- Oat, Wild plant response rating (wild oat; [8]): 0
- Plant response rating, Surinam Grass (Surinam grass; [9]): 10
- Plant response rating, Surinam Grass (Surinam grass; [7]): 10
- Surinam Grass plant response rating (Surinam grass; [8]): 0
- Plant response rating, Surinam Grass (Surinam grass; [10]): 0
- Plant response rating, Crabgrass, Large (large crabgrass; [9]): 90
- Plant response rating, Crabgrass, Large (large crabgrass; [7]): 0
- Crabgrass, Large plant response rating (large crabgrass; [8]): 0
- Plant response rating, Crabgrass, Large (large crabgrass; [10]): 0
- Plant response rating, Pigweed (pigweed; [9]): 80
- Plant response rating, Pigweed (pigweed; [7]): 80
- Pigweed plant response rating (pigweed; [8]): 0
- Plant response rating, Pigweed (pigweed; [10]): 0
- Plant response rating, Foxtail, Giant (giant foxtail; [9]): 10
- Plant response rating, Foxtail, Giant (giant foxtail; [7]): 0
- Foxtail, Giant plant response rating (giant foxtail; [8]): 0
- Plant response rating, Foxtail, Giant (giant foxtail; [10]): 0
- Plant response rating, Cocklebur (cocklebur; [9]): 0
- Plant response rating, Cocklebur (cocklebur; [7]): 30
- Cocklebur plant response rating (cocklebur; [8]): 30
- Plant response rating, Cocklebur (cocklebur; [10]): 0
- Sedge, Umbrella plant response rating ([2]; visual rating, 13 to 15 days): 70
- Plant response rating, Corn (corn; [9]): 0
- Plant response rating, Corn (corn; [7]): 0
- Corn plant response rating (corn; [8]): 0
- Plant response rating, Corn (corn; [10]): 0
- Rice plant response rating (rice; visual rating, 13 to 15 days): 0
- Plant response rating, Wheat (wheat; [7]): 0
- Wheat plant response rating (wheat; [8]): 0
- Barnyardgrass plant response rating (barnyardgrass [3]; visual rating, 13 to 15 days): 20
- Plant response rating, Lambsquarters (lambsquarters; [9]): 80
- Plant response rating, Lambsquarters (lambsquarters; [7]): 80
- Lambsquarters plant response rating (lambsquarters; [8]): 50
- Plant response rating, Lambsquarters (lambsquarters; [10]): 0
